Measurements taken from US9573913B2, “Cathepsin cysteine protease inhibitors” (Merck Sharp & Dohme Corp., priority 2013, dated 2017).

Key:
human cathepsin F = biological target: T1, human cathepsin F (Homo sapiens, UniProt Q9UBX1); experiment: Cathepsin F assay (hCat F); type: biochemical; conditions: Z-Phe-Arg-AMC substrate, pH 5.5, 15 min preincubation; read-out: hCat F (IP (nM))
T1 sequence (Q9UBX1 271-484): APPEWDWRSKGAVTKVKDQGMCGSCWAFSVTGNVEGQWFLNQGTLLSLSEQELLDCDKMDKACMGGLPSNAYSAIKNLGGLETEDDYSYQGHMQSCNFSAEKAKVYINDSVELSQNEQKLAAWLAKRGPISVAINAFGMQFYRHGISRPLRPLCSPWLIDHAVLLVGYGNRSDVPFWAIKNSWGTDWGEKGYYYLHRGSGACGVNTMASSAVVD
In short: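 AMC release from Z-Phe-Arg-AMC, added at 8 μM, was monitored fluorometrically (360/460 nm) for 20 min after 10 nM enzyme and compound had been preincubated 15 min at room temperature. Buffer: MES 50 mM pH 5.5, EDTA and DTT 2.5 mM each, 10% DMSO. Compound DMSO dilutions spanned 500–0.025 μM (3-fold). Dose-response fitting gave % inhibition.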

human cathepsin K = human cathepsin K (UniProt P43236); experiment: Cathepsin K Assay (hrbCat K); type: biochemical; conditions: Z-Leu-Arg-AMC substrate, pH 5.5, 15 min preincubation; read-out: hrbCat K (IP (nM))
In short: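 Human cathepsin K (0.4 nM) was preincubated 15 min at room temperature with compound in 50 mM MES pH 5.5, 2.5 mM EDTA, 2.5 mM DTT and 10% DMSO. Inhibition was fitted to a dose-response model.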

Row | IC50 (human cathepsin F) | IC50 (human cathepsin K) | Structure (SMILES)
1 | 1000 nM | 2.4 nM | N#CC1(NC(=O)[C@@H]2C[C@@H](F)CC[C@H]2c2nc(N3CCOCC3)sc2-c2ccc(N3CCS(=O)(=O)CC3)cc2)CC1 [Example 116, (1R,2R,5S)-N-(1-cyanocyclopropyl)-2-(5-(4-(1,1-dioxidothiomorpho-lino)phenyl)-2-morpholinothiazol-4-yl)-5-fluorocyclohexane-carboxamide]
2 | ≥ 10000 nM | 8 nM | N#CC1(NC(=O)[C@@H]2CCCC[C@H]2c2nc(N3CC(F)(F)C3)sc2-c2ccc(N3CCS(=O)(=O)CC3)cc2)CC1 [Example 117, (1R,2R)-N-(1-cyanocyclopropyl)-2-(2-(3,3-difluoroazetidin-1-yl)-5-(4-(1,1-dioxidothiomorpho-lino)phenyl)thiazol-4-yl)cyclohexane-carboxamide]
3 | ≥ 10000 nM | 59.4 nM | N#CC1(NC(=O)[C@@H]2CCCC[C@H]2c2nc(-c3ccnc(C(F)(F)F)n3)sc2-c2ccc(N3CCS(=O)(=O)CC3)cc2)CC1 [Example 118, (1R,2R)-N-(1-cyanocyclopropyl)-2-(5-(4-(1,1-dioxidothiomorpho-lino)phenyl)-2-(2-(trifluoromethyl)pyrimidin-4-yl)thiazol-4-yl)cyclohexane-carboxamide]
4 | 1200 nM | 1.3 nM | Cc1nccc(-c2nc([C@@H]3CCCC[C@H]3C(=O)NC3(C#N)CC3)c(-c3ccc(N4CCS(=O)(=O)CC4)cc3)s2)n1 [Example 119, (1R,2R)-N-(1-cyanocyclopropyl)-2-(5-(4-(1,1-dioxidothiomorpho-lino)phenyl)-2-(2-methylpyrimidin-4-yl)thiazol-4-yl)cyclohexane-carboxamide]
5 | 1110 nM | 1.4 nM | N#CC1(NC(=O)[C@@H]2CCCC[C@H]2c2nc(-c3ccc4c(c3)OCCO4)sc2-c2ccc(N3CCS(=O)(=O)CC3)cc2)CC1 [Example 120, (1R,2R)-N-(1-cyanocyclopropyl)-2-(2-(2,3-dihydrobenzo[b][1,4]dioxin-6-yl)-5-(4-(1,1-dioxidothiomorpho-lino)phenyl)thiazol-4-yl)cyclohexane-carboxamide]
6 | 1110 nM | 1.5 nM | N#CC1(NC(=O)[C@@H]2CCCC[C@H]2c2nc(-c3ccc(C4CCOCC4)cc3)sc2-c2ccc(N3CCS(=O)(=O)CC3)cc2)CC1 [Example 121, (1S,2R)-N-(1-cyanocyclopropyl)-2-(5-(4-(1,1-dioxidothiomorpho-lino)phenyl)-2-(4-(tetrahydro-2H-pyran-4-yl)phenyl)thiazol-4-yl)cyclohexane-carboxamide]
7 | 1110 nM | 2.2 nM | N#CC1(NC(=O)[C@@H]2CCCC[C@H]2c2nc(-c3ccc(F)c(C4CCOCC4)c3)sc2-c2ccc(N3CCS(=O)(=O)CC3)cc2)CC1 [Example 122, (1R,2R)-N-(1-cyanocyclopropyl)-2-(5-(4-(1,1-dioxidothiomorpho-lino)phenyl)-2-(4-fluoro-3-(tetrahydro-2H-pyran-4-yl)phenyl)thiazol-4-yl)cyclohexane-carboxamide]
8 | 2490 nM | 1.7 nM | N#CCNC(=O)[C@@H]1C[C@@H](F)CC[C@H]1c1nc(-c2cncc(F)c2)sc1-c1ccc(N2CCS(=O)(=O)CC2)cc1 [Example 123, (1R,2R,5S)-N-(cyanomethyl)-2-(5-(4-(1,1-dioxidothiomorpho-lino)phenyl)-2-(5-fluoropyridin-3-yl)thiazol-4-yl)-5-fluorocyclohexane-carboxamide]
9 | 3120 nM | 1.8 nM | N#CCNC(=O)[C@@H]1C[C@@H](F)CC[C@H]1c1nc(-c2ccc(F)cn2)sc1-c1ccc(N2CCS(=O)(=O)CC2)cc1 [Example 124, (1R,2R,5S)-N-(cyanomethyl)-2-(5-(4-(1,1-dioxidothiomorpho-lino)phenyl)-2-(5-fluoropyridin-2-yl)thiazol-4-yl)-5-fluorocyclohexane-carboxamide]
10 | 310 nM | 7.5 nM | CS(=O)(=O)c1ccc(-c2sc(-c3cncc(F)c3)nc2[C@@H]2CCCC[C@H]2C(=O)NC2(C#N)CC2)cc1 [Example 125, (1R,2R)-N-(1-cyanocyclopropyl)-2-(2-(5-fluoropyridin-3-yl)-5-(4-(methylsulfonyl)phenyl)thiazol-4-yl)cyclohexane-carboxamide]
11 | ≥ 10000 nM | 1.8 nM | Cc1ncc(-c2nc([C@@H]3CC[C@H](F)C[C@H]3C(=O)NC3(C#N)CC3)c(-c3ccc(N4CCS(=O)(=O)CC4)cc3)s2)s1 [Example 128, (1R,2R,5S)-N-(1-cyanocyclopropyl)-2-(5-(4-(1,1-dioxidothiomorpho-lino)phenyl)-2′-methyl-[2,5′-bithiazol]-4-yl)-5-fluorocyclohexane-carboxamide]
12 | ≥ 10000 nM | 25.5 nM | C[C@H](C#N)NC(=O)[C@@H]1C[C@@H](F)CC[C@H]1c1nc(-c2ccc(F)cn2)sc1-c1ccc(N2CCS(=O)(=O)CC2)cc1 [Example 129, (1R,2R,5S)-N-((R)-1-cyanoethyl)-2-(5-(4-(1,1-dioxidothiomorpho-lino)phenyl)-2-(5-fluoropyridin-2-yl)thiazol-4-yl)-5-fluorocyclohexane-carboxamide]
13 | 1000 nM | 0.9 nM | C[C@@H](C#N)NC(=O)[C@@H]1C[C@@H](F)CC[C@H]1c1nc(-c2ccc(F)cn2)sc1-c1ccc(N2CCS(=O)(=O)CC2)cc1 [Example 130, (1R,2R,5S)-N-((S)-1-cyanoethyl)-2-(5-(4-(1,1-dioxidothiomorpho-lino)phenyl)-2-(5-fluoropyridin-2-yl)thiazol-4-yl)-5-fluorocyclohexane-carboxamide]
14 | 1790 nM | 39.7 nM | CS(=O)(=O)c1ccc(-c2sc(-c3cccnc3)nc2[C@@H]2CCCC[C@H]2C(=O)NC2(C#N)CC2)cc1 [Example 131, (1R,2R)-N-(1-cyanocyclopropyl)-2-(5-(4-(methylsulfonyl)phenyl)-2-(pyridin-3-yl)thiazol-4-yl)cyclohexane-carboxamide]
15 | 2340 nM | 1.8 nM | N#CC1(NC(=O)[C@@H]2CCCC[C@H]2c2nc(-c3cccc(C(F)(F)F)n3)sc2-c2ccc(N3CCS(=O)(=O)CC3)cc2)CC1 [Example 132, (1R,2R)-N-(1-cyanocyclopropyl)-2-(5-(4-(1,1-dioxidothiomorpho-lino)phenyl)-2-(6-(trifluoromethyl)pyridin-2-yl)thiazol-4-yl)cyclohexane-carboxamide]
16 | ≥ 10000 nM | 4.9 nM | CC1(c2nc([C@@H]3CCCC[C@H]3C(=O)NC3(C#N)CC3)c(-c3ccc(N4CCS(=O)(=O)CC4)cc3)s2)CCOCC1 [Example 133, (1R,2R)-N-(1-cyanocyclopropyl)-2-(5-(4-(1,1-dioxidothiomorpho-lino)phenyl)-2-(4-methyltetrahydro-2H-pyran-4-yl)thiazol-4-yl)cyclohexane-carboxamide]
17 | 1560 nM | 1.2 nM | N#CC1(NC(=O)[C@@H]2CCCC[C@H]2c2nc(-c3cncc(F)c3)sc2-c2ccc(N3CCS(=N)(=O)CC3)cc2)CC1 [Example 135, (1R,2R)-N-(1-cyanocyclopropyl)-2-(2-(5-fluoropyridin-3-yl)-5-(4-(1-imino-1-oxidothiomorpholino)phenyl)thiazol-4-yl)cyclohexane-carboxamide]
18 | 1660 nM | 1.9 nM | N#CC1(NC(=O)[C@@H]2CCCC[C@H]2c2nc(-c3ccc(F)cn3)sc2-c2ccc(N3CCS(=N)(=O)CC3)cc2)CC1 [Example 136, (1R,2R)-N-(1-cyanocyclopropyl)-2-(2-(5-fluoropyridin-2-yl)-5-(4-(1-imino-1-oxidothiomorpholino)phenyl)thiazol-4-yl)cyclohexane-carboxamide]
19 | 2130 nM | 1.9 nM | CN=S1(=O)CCN(c2ccc(-c3sc(-c4cncc(F)c4)nc3[C@@H]3CCCC[C@H]3C(=O)NC3(C#N)CC3)cc2)CC1 [Example 138, (1R,2R)-N-(1-cyanocyclopropyl)-2-(2-(5-fluoropyridin-3-yl)-5-(4-(1-(methylimino)-1-oxidothiomorpholino)phenyl)thiazol-4-yl)cyclohexane-carboxamide]
20 | 2750 nM | 3.3 nM | CN=S1(=O)CCN(c2ccc(-c3sc(-c4ccc(F)cn4)nc3[C@@H]3CCCC[C@H]3C(=O)NC3(C#N)CC3)cc2)CC1 [Example 139, (1R,2R)-N-(1-cyanocyclopropyl)-2-(2-(5-fluoropyridin-2-yl)-5-(4-(1-(methylimino)-1-oxidothiomorpholino)phenyl)thiazol-4-yl)cyclohexane-carboxamide]
21 | 1000 nM | 2.3 nM | N#CC1(NC(=O)[C@@H]2C[C@@H](F)CC[C@H]2c2nc(-c3ccc(F)cn3)sc2-c2ccc(N3CCS(=N)(=O)CC3)cc2)CC1 [Example 141, (1R,2R,5S)-N-(1-cyanocyclopropyl)-5-fluoro-2-(2-(5-fluoropyridin-2-yl)-5-(4-(1-imino-1-oxidothiomorpholino)phenyl)thiazol-4-yl)cyclohexane-carboxamide]
22 | 3400 nM | 5.8 nM | CC1(C)CN(c2nc([C@@H]3CCCC[C@H]3C(=O)NC3(C#N)CC3)c(-c3ccc(N4CCS(=O)(=O)CC4)cc3)s2)CCO1 [Example 142, (1R,2R)-N-(1-cyanocyclopropyl)-2-(2-(2,2-dimethylmorpholino)-5-(4-(1,1-dioxidothiomorpho-lino)phenyl)thiazol-4-yl)cyclohexane-carboxamide]
